Here are results for 2 molecules from ChEMBL document CHEMBL4354805, “Discovery of MK-8719, a Potent O-GlcNAcase Inhibitor as a Potential Treatment for Tauopathies” (J Med Chem, 2019).

The nature of data set [1]: Fraction unbound in human plasma at 2.5 uM by equilibrium dialysis. It counts as ADME, cell-free. A general note: In equilibrium dialysis free small molecules cross a membrane that holds back macromolecules.
In data set [2] the target is T1, Protein O-GlcNAcase (Homo sapiens, UniProt O60502).
T1 sequence (O60502 whole entry): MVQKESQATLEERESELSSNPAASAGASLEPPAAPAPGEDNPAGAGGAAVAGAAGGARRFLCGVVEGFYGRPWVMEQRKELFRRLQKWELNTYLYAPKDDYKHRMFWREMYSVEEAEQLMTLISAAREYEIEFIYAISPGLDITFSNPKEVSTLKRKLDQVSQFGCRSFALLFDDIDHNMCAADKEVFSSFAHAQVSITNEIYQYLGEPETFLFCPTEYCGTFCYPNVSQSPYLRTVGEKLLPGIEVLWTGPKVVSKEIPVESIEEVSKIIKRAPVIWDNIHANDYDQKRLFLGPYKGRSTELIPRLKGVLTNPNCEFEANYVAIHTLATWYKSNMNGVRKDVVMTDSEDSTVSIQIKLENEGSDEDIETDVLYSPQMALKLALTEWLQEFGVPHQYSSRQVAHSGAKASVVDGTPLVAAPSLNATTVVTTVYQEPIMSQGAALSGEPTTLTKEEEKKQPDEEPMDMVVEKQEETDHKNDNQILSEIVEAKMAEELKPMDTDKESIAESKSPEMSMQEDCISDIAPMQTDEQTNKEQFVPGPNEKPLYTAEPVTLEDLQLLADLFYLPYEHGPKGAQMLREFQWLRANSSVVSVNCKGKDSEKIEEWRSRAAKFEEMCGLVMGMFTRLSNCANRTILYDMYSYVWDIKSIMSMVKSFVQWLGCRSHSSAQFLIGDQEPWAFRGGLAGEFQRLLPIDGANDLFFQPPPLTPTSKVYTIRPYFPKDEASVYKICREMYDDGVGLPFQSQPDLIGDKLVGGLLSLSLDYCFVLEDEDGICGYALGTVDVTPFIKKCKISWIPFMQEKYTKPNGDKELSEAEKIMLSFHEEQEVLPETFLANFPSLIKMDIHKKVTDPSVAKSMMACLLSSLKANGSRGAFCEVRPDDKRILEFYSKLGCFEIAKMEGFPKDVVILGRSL
Briefly: Inhibition of recombinant human OGA.

Data set [3] deals with T2, Protein O-GlcNAcase (Rattus norvegicus, UniProt Q8VIJ5).
T2 sequence (Q8VIJ5 whole entry): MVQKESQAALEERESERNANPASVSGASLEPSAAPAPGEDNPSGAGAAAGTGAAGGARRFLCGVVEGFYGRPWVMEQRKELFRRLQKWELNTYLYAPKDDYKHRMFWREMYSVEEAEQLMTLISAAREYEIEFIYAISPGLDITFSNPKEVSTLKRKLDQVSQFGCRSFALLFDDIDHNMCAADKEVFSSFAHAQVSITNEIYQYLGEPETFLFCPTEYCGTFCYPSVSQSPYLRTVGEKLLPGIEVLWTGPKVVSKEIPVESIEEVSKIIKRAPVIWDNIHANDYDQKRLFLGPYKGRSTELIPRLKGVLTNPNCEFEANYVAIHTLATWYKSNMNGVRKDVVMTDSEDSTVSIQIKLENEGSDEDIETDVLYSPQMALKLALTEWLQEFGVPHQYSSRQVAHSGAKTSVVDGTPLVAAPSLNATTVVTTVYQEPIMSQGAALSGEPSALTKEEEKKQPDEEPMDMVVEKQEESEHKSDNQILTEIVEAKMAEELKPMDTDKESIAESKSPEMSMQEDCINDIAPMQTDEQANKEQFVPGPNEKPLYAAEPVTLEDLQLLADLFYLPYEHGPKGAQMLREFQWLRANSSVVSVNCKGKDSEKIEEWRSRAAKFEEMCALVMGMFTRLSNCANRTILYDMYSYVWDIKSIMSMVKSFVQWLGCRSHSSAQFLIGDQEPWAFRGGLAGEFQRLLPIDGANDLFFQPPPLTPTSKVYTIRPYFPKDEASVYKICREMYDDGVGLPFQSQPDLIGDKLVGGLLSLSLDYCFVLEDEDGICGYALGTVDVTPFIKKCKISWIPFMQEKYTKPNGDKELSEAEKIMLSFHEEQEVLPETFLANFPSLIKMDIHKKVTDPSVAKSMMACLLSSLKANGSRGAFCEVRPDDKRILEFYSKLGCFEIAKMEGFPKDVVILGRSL
Briefly: Inhibition of OGA in rat PC12 cells assessed as OGlcNAcylated protein level incubated for 24 hrs by ELISA. It counts as cell-based. In general terms: In an ELISA, binding on a coated surface is turned into a signal by an enzyme label.

For data set [4], the target named is T3, Beta-hexosaminidase subunit beta (Homo sapiens, UniProt P07686).
T3 sequence (P07686 whole entry): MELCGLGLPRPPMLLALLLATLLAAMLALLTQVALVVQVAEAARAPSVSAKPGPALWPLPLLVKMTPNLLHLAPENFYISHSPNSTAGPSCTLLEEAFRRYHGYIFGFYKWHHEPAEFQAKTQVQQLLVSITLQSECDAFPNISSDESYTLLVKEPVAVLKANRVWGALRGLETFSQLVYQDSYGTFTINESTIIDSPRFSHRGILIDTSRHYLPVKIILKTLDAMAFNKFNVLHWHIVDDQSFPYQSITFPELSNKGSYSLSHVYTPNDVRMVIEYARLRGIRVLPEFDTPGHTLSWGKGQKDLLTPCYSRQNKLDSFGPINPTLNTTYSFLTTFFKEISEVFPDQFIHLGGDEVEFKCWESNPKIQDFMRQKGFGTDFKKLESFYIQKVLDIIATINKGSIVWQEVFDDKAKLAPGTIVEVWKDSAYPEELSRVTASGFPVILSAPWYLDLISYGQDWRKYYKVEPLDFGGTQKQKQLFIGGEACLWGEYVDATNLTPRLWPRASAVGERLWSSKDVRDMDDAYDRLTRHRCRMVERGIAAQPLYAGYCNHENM
In words: Inhibition of human beta hexosaminidase assessed as inhibitory constant using 4-methylumbelliferyl N-acetyl-beta-D-glucosaminide dihydrate as substrate measured every 60 sec for 45 mins by fluorescence spectrophotometry.

A short description of data set [5]: Fraction unbound in Wistar Han rat plasma at 2.5 uM by equilibrium dialysis. In kind it is ADME, cell-free.
Data set [6] is described as follows: AUCN in Wistar Han rat at 3 mg/kg, po. It counts as ADME, organism-based. The note with it: in vivo.
Data set [7] in a line: Clearance in Wistar Han rat at 1 mg/kg, iv. In kind it is ADME, organism-based. Conditions: in vivo.
Data set [8] can be described thus: Half life in Wistar Han rat at 1 mg/kg, iv. In kind it is ADME, organism-based. Conditions: in vivo.
A short description of data set [9]: Volume of distribution at steady state in Wistar Han rat at 1 mg/kg, iv or 3 mg/kg, po. In kind it is ADME, organism-based. Conditions: in vivo, read-out: Vdss.
Data set [10] can be described thus: Oral bioavailability in Wistar Han rat at 3 mg/kg. In kind it is ADME, organism-based. The note with it: in vivo.
Data set [11] deals with Rattus norvegicus. In words: Elevation of O-protein in rat brain at 3 mg/kg, po measured after 8 hrs relative to control. It counts as functional.
Data set [12] concerns Rattus norvegicus. In words: Elevation of O-protein in rat brain at 3 mg/kg, po measured after 24 hrs relative to control. In kind it is functional.
Data set [13] in a line: Drug uptake in rat brain at 3 mg/kg, po measured after 8 hrs. The note with it: in vivo. In kind it is ADME, organism-based.
The nature of data set [14]: Drug uptake in rat brain at 3 mg/kg, po measured after 24 hrs. It counts as ADME, organism-based. Conditions: in vivo.
Data set [15] can be described thus: Ratio of drug uptake in rat brain to plasma at 3 mg/kg, po measured after 8 hrs. It counts as ADME, organism-based. The note with it: read-out: BPR.
A short description of data set [16]: Ratio of drug uptake in rat brain to plasma at 3 mg/kg, po measured after 24 hrs. It counts as ADME, organism-based. The note with it: read-out: BPR.
Data set [17] in a line: Tmax in rat brain at 3 mg/kg, po measured upto 24 hrs. In kind it is ADME, organism-based.
A short description of data set [18]: AUC (0 to 24 hrs) in rat brain at 3 mg/kg, po measured upto 24 hrs. The arrangement: dose 3 mg/kg, time < 24 hr, route oral. Conditions: in vivo. In kind it is ADME, organism-based.
The test system of data set [19] is Rattus norvegicus. Briefly: Increase in O-protein AUC in rat brain at 3 mg/kg, po measured upto 24 hrs. In kind it is ADME, organism-based. The note with it: in vivo.
The nature of data set [20]: Drug excretion in rat urine at 10 mg/kg, po. It counts as ADME, organism-based. Conditions: read-out: Drug excretion.
The nature of data set [21]: Drug excretion in rat bile at 10 mg/kg, po. It counts as ADME, organism-based. The note with it: read-out: Drug excretion.
Data set [22] is described as follows: Drug excretion in rat feces at 10 mg/kg, po. It counts as ADME, organism-based. The note with it: faeces, read-out: Drug excretion.
The nature of data set [23]: Drug excretion in rat cage at 10 mg/kg, po. It counts as ADME, organism-based. Conditions: read-out: Drug excretion.
The nature of data set [24]: Drug excretion in rat at 10 mg/kg, po. It counts as ADME, organism-based. The note with it: in vivo, read-out: Drug excretion.
Data set [25] is described as follows: Drug excretion in dog urine at 3 mg/kg, po. Conditions: read-out: Drug excretion. In kind it is ADME, organism-based, Canis lupus familiaris.
Data set [26] in a line: Drug excretion in dog bile at 3 mg/kg, po. In kind it is ADME, organism-based, Canis lupus familiaris. Conditions: read-out: Drug excretion.
A short description of data set [27]: Drug excretion in dog cage at 3 mg/kg, po. In kind it is ADME, organism-based, Canis lupus familiaris. Conditions: read-out: Drug excretion.
Data set [28] is described as follows: Drug excretion in dog at 3 mg/kg, po. It counts as ADME, organism-based, Canis lupus familiaris. Conditions: in vivo, read-out: Drug excretion.

pEC50, pKi: −log10 of the molar value.

As to `CNC1=N[C@@H]2[C@H](F)[C@H](O)[C@@H](CO)O[C@@H]2S1`, the fraction unbound – broadly, free concentration divided by total concentration – at 2.5 µM was determined as 0.84 in data set [1] and 0.96 in data set [5]. Moreover, the pKi (as a rule, −log10 of the Ki, conventionally taken in molar units) is 9.28 at Protein O-GlcNAcase [2] and < 5.00 in data set [4]. On Protein O-GlcNAcase [3], the pEC50 (in general, the negative decadic logarithm of the EC50, by convention in mol/L) was 7.97. The same molecule had an AUC/dose in data set [6] of 1.43 µM·kg·h/mg. Moreover, the clearance (usually the rate of elimination divided by the concentration) in [7] was 36.8 mL/min/kg. In addition, in data set [8], the half-life (usually the time in which the quantity being followed falls by half) was 1.27 h. Besides, in data set [9], the Vd is 2 L/kg. For the same molecule, the bioavailability (in general, the share of a dose that reaches the circulation, judged against a reference dose that is usually intravenous) in data set [10] stood at 70.4%. Also, the “fold change (FC)” value amounted to 2.13 in the data set with Rattus norvegicus [11], 1.45 in the data set with Rattus norvegicus [12] and 18.44 in the data set with Rattus norvegicus [19]. The results for the Drug uptake in data set [13] and in [14] were 0.099 nmol/g and 0.074 nmol/g, respectively. In addition, the Kp at 8 h in [15] stood at 1.67. Moreover, the Kp at 24 h in data set [16] was ≥ 29.5. In addition, in data set [17], the Tmax (in general, the time from dosing to the highest level) amounted to 8 h. Further, in data set [18], the AUC was determined as 1.963 nM·h/g.
In the case of `[3H][C@@]1(O)[C@@H](C(F)F)O[C@@H]2SC(NCC)=N[C@@H]2[C@H]1O`, the dose excreted in [20] was found to be 75%; in data set [21] it was 17%; in data set [22], 0.5%; in [23], 3%; in data set [24], 96%; in [25], 79%. In addition, the dose excreted in [26] was 8%; in data set [27] it was 1%; in data set [28], 88%.
